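Tested at 5 concentrations; 48 h exposure; 96-well plates; endpoints linearly interpolated, else capped at highest concentration. GI50 is the concentration that inhibits growth by half.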 Calls of active or inactive are those of the source. Cut-off read from the data, not from the text of the source: active = GI50 up to about 1.1 µM and inactive = higher.
Key:
Assay in all cases: DTP human tumour cell line panel, 48 h
[1] = tested on: SK-MEL-2
[2] = tested on: RXF 393
[3] = tested on: 786-0
[4] = tested on: OVCAR-5
[5] = tested on: SR
[6] = tested on: K562
[7] = tested on: LOX IMVI
[8] = tested on: MOLT-4
[9] = tested on: CCRF-CEM
[10] = tested on: HT-29
[11] = tested on: OVCAR-8
[12] = tested on: MDA-MB-231
[13] = tested on: SK-MEL-5
[14] = tested on: HCT-15
[15] = tested on: EKVX
[16] = tested on: MCF7
[17] = tested on: A549
[18] = tested on: BT-549
[19] = tested on: UO-31
[20] = tested on: Malme-3M

Compound	GI50 [1]	GI50 [2]	GI50 [3]	GI50 [4]	GI50 [5]	GI50 [6]	GI50 [7]	GI50 [8]	GI50 [9]	GI50 [10]	GI50 [11]	GI50 [12]	GI50 [13]	GI50 [14]	GI50 [15]	GI50 [16]	GI50 [17]	GI50 [18]	GI50 [19]	GI50 [20]
COC(=O)C(/C(=N/N)C(=O)Nc1cc(Cl)c(Cl)cc1Cl)c1nc2ccc(Cl)cc2nc1O (stereo not drawn)	> 100 µM (inactive)	> 100 µM (inactive)	> 100 µM (inactive)	> 100 µM (inactive)	87.1 µM (inactive)	> 100 µM (inactive)	> 100 µM (inactive)	0.0515 µM (active)	> 10 µM (inactive)	> 100 µM (inactive)	> 100 µM (inactive)	> 100 µM (inactive)	> 100 µM (inactive)	> 100 µM	29.1 µM (inactive)	> 100 µM (inactive)	> 100 µM (inactive)	> 100 µM (inactive)	42.5 µM (inactive)	> 100 µM (inactive)
Cc1nc2ccccc2c(=O)n1NC(=O)c1ccccc1[N+](=O)[O-]		> 10 µM (inactive)	> 100 µM (inactive)	> 100 µM (inactive)	> 100 µM (inactive)	> 100 µM (inactive)	> 100 µM (inactive)	> 100 µM (inactive)	> 100 µM (inactive)	> 100 µM (inactive)	> 10 µM (inactive)	> 100 µM (inactive)	> 100 µM (inactive)	> 100 µM	71.4 µM (inactive)	> 100 µM (inactive)	> 100 µM (inactive)	> 100 µM (inactive)	> 100 µM (inactive)	> 100 µM (inactive)
Cc1nc2cccc([N+](=O)[O-])c2n1CCCN(C)C	> 100 µM (inactive)	> 100 µM (inactive)	> 100 µM (inactive)	> 100 µM (inactive)	> 100 µM (inactive)	> 100 µM (inactive)	> 100 µM (inactive)		> 100 µM (inactive)	> 100 µM (inactive)	> 100 µM (inactive)	> 100 µM (inactive)	> 100 µM (inactive)	> 100 µM	> 100 µM (inactive)	> 100 µM (inactive)	> 100 µM (inactive)	> 100 µM (inactive)	16.8 µM (inactive)	> 100 µM (inactive)
CCCCCCC1OC23OC1CCC2C(O)CCC3O (stereo not drawn)	> 100 µM (inactive)	> 100 µM (inactive)	> 100 µM (inactive)	> 100 µM (inactive)	> 100 µM (inactive)	> 100 µM (inactive)	> 100 µM (inactive)	> 100 µM (inactive)		> 100 µM (inactive)	> 100 µM (inactive)	> 100 µM (inactive)	> 100 µM (inactive)	> 100 µM	> 100 µM (inactive)	> 100 µM (inactive)		> 100 µM (inactive)	> 100 µM (inactive)	> 100 µM (inactive)
CC(C)(C)C1CC[C@H](O)[C@H]([C@@H](O)CC2CC(=O)N(c3ccccc3)C(=O)C2)C1 (stereo partly drawn)		64 µM (inactive)	> 100 µM (inactive)	> 100 µM (inactive)	40.9 µM (inactive)	54.1 µM (inactive)	49.3 µM (inactive)	38.9 µM (inactive)	51.9 µM (inactive)	23.1 µM (inactive)	50.7 µM (inactive)	67.3 µM (inactive)	45.2 µM (inactive)	56.4 µM	70 µM (inactive)	44.2 µM (inactive)	67.5 µM (inactive)	29.4 µM (inactive)	76.4 µM (inactive)	65.5 µM (inactive)
CC(C)(C)OC(=O)N1C(OP(=O)(Oc2ccccc2)Oc2ccccc2)=CSc2ccccc21	19.1 µM (inactive)	41.8 µM (inactive)	45.5 µM (inactive)	68.9 µM (inactive)	31.8 µM (inactive)	38.3 µM (inactive)	47.2 µM (inactive)	20.1 µM (inactive)		50.2 µM (inactive)	59 µM (inactive)	24 µM (inactive)	28.2 µM (inactive)	37.5 µM	31.8 µM (inactive)	28.5 µM (inactive)	67.8 µM (inactive)	48.4 µM (inactive)	27.4 µM (inactive)	27.7 µM (inactive)
C/C(=N\Nc1nc2ccccc2s1)c1ccncn1	8.09 µM (inactive)	7.74 µM (inactive)	0.719 µM (active)	3.13 µM (inactive)	0.641 µM (active)	0.973 µM (active)		0.145 µM (active)	0.117 µM (active)	0.0311 µM (active)	0.286 µM (active)	0.499 µM (active)	0.621 µM (active)	0.661 µM	0.245 µM (active)	0.348 µM (active)	2.22 µM (inactive)	4.15 µM (inactive)	0.387 µM (active)	0.705 µM (active)
CCOC(=O)c1c(N)sc2c1C(C(=O)OCC)CC2 (stereo not drawn)	> 100 µM (inactive)	> 100 µM (inactive)	> 100 µM (inactive)	> 100 µM (inactive)	40 µM (inactive)	46.5 µM (inactive)		35.6 µM (inactive)		> 100 µM (inactive)	> 100 µM (inactive)	76.7 µM (inactive)	> 100 µM (inactive)	> 100 µM	> 100 µM (inactive)	> 100 µM (inactive)	> 100 µM (inactive)	72.3 µM (inactive)	62.4 µM (inactive)	74.1 µM (inactive)
COC(=O)[C@@H]1C[C@@]2(C3C=CN(C(=O)C(F)(F)F)C=C3)c3ccccc3N(C(=O)C(F)(F)F)[C@H]2N1C(=O)OC		24.5 µM (inactive)	54 µM (inactive)	> 100 µM (inactive)	53.8 µM (inactive)	47.8 µM (inactive)	44.5 µM (inactive)	61.5 µM (inactive)	31.7 µM (inactive)	> 10 µM (inactive)	> 100 µM (inactive)	> 100 µM (inactive)	70 µM (inactive)	88.1 µM	> 100 µM (inactive)	51.8 µM (inactive)	> 100 µM (inactive)	33.3 µM (inactive)	> 100 µM (inactive)	> 100 µM (inactive)
COC(=O)C1=C(OC(=O)/C(=C/c2ccccc2)c2ccccc2)C(C(=O)OC)[C@@]2(O)[C@@H](C(=O)OC)[C@H](C)C[C@@H]1[C@@H]2C(=O)OC (stereo partly drawn)	> 100 µM (inactive)	66.2 µM (inactive)	> 100 µM (inactive)	> 100 µM (inactive)	> 100 µM (inactive)	6.11 µM (inactive)	> 100 µM (inactive)		> 100 µM (inactive)	> 100 µM (inactive)	> 100 µM (inactive)	> 100 µM (inactive)	> 100 µM (inactive)	> 100 µM	> 100 µM (inactive)	> 100 µM (inactive)	> 100 µM (inactive)	> 100 µM (inactive)	> 100 µM (inactive)	> 100 µM (inactive)
CC(C)N1[C@@H]2CCCC[C@H]2N(C(C)C)P1(=O)C(=O)/C=C/c1ccccc1	2.72 µM (inactive)	1.69 µM (inactive)	1.81 µM (inactive)	2.37 µM (inactive)	2.83 µM (inactive)	2.52 µM (inactive)	2.03 µM (inactive)	2.7 µM (inactive)		2.79 µM (inactive)	1.73 µM (inactive)	2.98 µM (inactive)	1.5 µM (inactive)	1.92 µM	3.54 µM (inactive)	3.5 µM (inactive)	3.35 µM (inactive)	2.91 µM (inactive)	1.64 µM (inactive)	1 µM (active)
CCC(C)c1cnc(CC(C)C)c(=O)[nH]1 (stereo not drawn)	> 100 µM (inactive)	> 100 µM (inactive)	> 100 µM (inactive)	> 100 µM (inactive)	> 100 µM (inactive)	> 100 µM (inactive)	> 100 µM (inactive)	> 100 µM (inactive)	89.5 µM (inactive)	> 100 µM (inactive)	> 100 µM (inactive)	> 100 µM (inactive)	> 100 µM (inactive)	> 100 µM	> 100 µM (inactive)	> 100 µM (inactive)	> 100 µM (inactive)	> 100 µM (inactive)	> 100 µM (inactive)	
Cc1c(C(=O)OCc2ccccc2)[n+]([O-])c2cc(Cl)c(Cl)cc2[n+]1[O-]	17.4 µM (inactive)	19.1 µM (inactive)	16 µM (inactive)	21.3 µM (inactive)	5.37 µM (inactive)	23.6 µM (inactive)	17.2 µM (inactive)	3.28 µM (inactive)	14.8 µM (inactive)	17.1 µM (inactive)	18.2 µM (inactive)	19.5 µM (inactive)	15 µM (inactive)	16.1 µM	13.9 µM (inactive)	19.5 µM (inactive)	11.1 µM (inactive)	20.4 µM (inactive)	16.4 µM (inactive)	
CCc1[nH]nc(C(N)=O)c1/N=N/N(C)C	> 100 µM (inactive)	> 100 µM (inactive)	89.7 µM (inactive)		10.1 µM (inactive)	1.13 µM (inactive)	43.2 µM (inactive)	6.46 µM (inactive)	28.2 µM (inactive)	> 100 µM (inactive)	73.1 µM (inactive)	> 100 µM (inactive)	70 µM (inactive)	68.4 µM	57.5 µM (inactive)	30.9 µM (inactive)	43.5 µM (inactive)	21.8 µM (inactive)	2.58 µM (inactive)	78.3 µM (inactive)
O=c1c2cccnc2[nH]c2ccc3scnc3c12	> 10 µM (inactive)	3.11 µM (inactive)	5.58 µM (inactive)	> 10 µM (inactive)	4.32 µM (inactive)		3.36 µM (inactive)	4.34 µM (inactive)	5.27 µM (inactive)	4.72 µM (inactive)	> 10 µM (inactive)	> 10 µM (inactive)	7.01 µM (inactive)	4.92 µM	> 10 µM (inactive)	> 10 µM (inactive)	3.96 µM (inactive)	> 10 µM (inactive)		> 10 µM (inactive)

From ChEMBL document CHEMBL1201862, “PubChem BioAssay data set” (2004)
